Test results as given in PubChem BioAssay (NCI).
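Exposure lasted 48 hours, with cells grown in 96-well plates and compounds tested at five concentrations. GI50 = concentration required for 50% inhibition of growth. TGI: total growth inhibition.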

Tests used:
Test in all cases: NCI tumour cell line growth inhibition, 48 h
[1] = system: LOX IMVI melanoma
[2] = system: OVCAR-3 ovarian
[3] = system: CCRF-CEM leukemia
[4] = system: M14 melanoma
[5] = system: MDA-MB-435
[6] = system: SK-MEL-2 melanoma
[7] = system: U251 CNS
[8] = system: NCI-H460 lung
[9] = system: NCI-H226 lung
[10] = system: SR leukemia

SMILES	TGI [1] [µM]	TGI [2] [µM]	TGI [3] [µM]	TGI [4] [µM]	TGI [5] [µM]	TGI [6] [µM]	TGI [7] [µM]	TGI [8] [µM]	TGI [9] [µM]	TGI [10] [µM]	GI50 [1] [µM]	GI50 [2] [µM]	GI50 [3] [µM]	GI50 [4] [µM]	GI50 [5] [µM]	GI50 [6] [µM]	GI50 [7] [µM]	GI50 [8] [µM]	GI50 [9] [µM]	GI50 [10] [µM]
CCOC(=O)c1c(NC(=O)c2cccs2)sc2c1CCCC2	> 100	> 100	> 100	> 100	> 100	> 100	> 91.9	> 100	> 100	> 100										
CCOC(=O)C1=C(C)N(Cc2ccc(Cl)cc2Cl)C2(O)C=CC(=O)C3C(=O)N(c4ccccc4)C(=O)C132 (configuration not stated)	2.38	3.44	1.4	16	7.24	4.27	3.8	5.77	3.09	2.23										
CN(C)CCCNC(=O)c1cc2[nH]c3c(cnc4ccc([N+](=O)[O-])cc43)c(=O)c2n1C	27.5	45.9	30.6	31.1	33.6	> 100	31.3	26	> 100	43.3	14.4	19.4	14.5	17.3	17.3	> 100	17.5	13.3	49.8	14.5
Nc1ccc(Oc2ccc(C34CC5CC6C3CC3CC4C(C5)C6(c4ccc(Oc5ccc(N)cc5)cc4)C3)cc2)cc1	> 76.1	29.7	> 63.6	21.4	19	23.6	14.9	61.2	71.4	40.1										
COC(=O)CCC1=CCC2(SC)C(=O)Nc3cccc1c32 (configuration not stated)	> 100	> 100	> 100	> 100	> 100	> 100	> 100	> 100	> 100	> 100										
Nc1ccc(-c2nc3cc(F)ccc3s2)cc1Cl	> 100	45.6	> 100	> 100	> 100	> 100	55.4	25	5.04	9.4										
O=c1cnn(C2OC(C(O)CO)C(O)C2O)c(=O)[nH]1 (configuration not stated)	> 100	> 100	> 100	> 100	> 100	> 100	> 100	> 100	> 100	> 100										
CCCn1c2ccccc2c2ccc3c(c21)C(=O)C=CC3=O	> 10	4.88	0.47	> 6.11	5.29	> 10	> 10	> 10	> 10	0.883										
C[N+](CCCl)(CCCl)Cc1cccc2cccc([N+](=O)[O-])c12	> 100	> 100	> 100	> 100	> 100	> 100	> 100	> 100	> 100	> 100										
C=C(CCC/C(C)=C/C=C/[C@]1(C)CCCc2ccoc21)CC(=O)O	> 100	> 100	> 100	> 100	> 100	> 100	> 100	> 100	> 100	> 100										
CC(=O)Nc1ccc(N2C(=O)/C(=C\c3cccc(Oc4ccccc4)c3)S(=O)(=O)C2c2ccccc2)cc1 (configuration not stated)	> 100	> 100	> 100	> 100	> 100	> 100	> 100	> 100	> 100	> 100										
C1C2CC3CC1CC(Nc1nc(NC45CC6CC(CC(C6)C4)C5)nc(NC45CC6CC(CC(C6)C4)C5)n1)(C2)C3	> 52.1	> 100	> 100	> 100	> 100	> 100	> 100	> 100	> 100	> 100										
COc1cc(C(=O)n2c3ccc(Br)cc3c3nc4ccccc4nc32)cc(OC)c1OC	> 100	> 100	> 100	> 100	> 100	> 100	> 100	> 100	> 100	> 100										
Cc1cc2c(cc1Cl)SC(NS(=O)(=O)c1ccc(Cl)cc1)=NS2(=O)=O	> 100	> 100	> 100	> 100	> 100	> 100	> 100	> 100	> 100	30.4										
O=C1NC(=O)C(c2c[nH]c3ccccc23)=C1c1cnc[nH]1	> 100	> 100	> 100	> 100	> 100	> 100	> 100	> 100	9.4	> 100										
COCC1OC(Sc2ccccc2)C(O)C(OC)C1OC (configuration not stated)	> 100	> 100	> 100	> 100	> 100	> 100	> 100	> 100	> 100	> 100										
O=C(O)CC(CC(=O)O)C(=O)O	> 100	> 100	> 100	> 100	> 100	> 100	> 100	> 100	> 100	> 100										
CCCCS(=O)CCC(N)P(=O)(O)O (configuration not stated)	> 100	> 100	> 100	> 100	> 100	> 100	> 100	> 100	> 100	> 100										
CC1(c2cccs2)CC(c2cccs2)=C(C#N)C(=C(C#N)C#N)N1 (configuration not stated)	32.4	32.1	27.9	40.5	31.8	37.4	31	43.9	90	> 100										
COC(=O)c1cc2c3c(ccc2[nH]1)N(C(=O)c1cc2cc(OC)c(OC)c(OC)c2[nH]1)CC3CCl (configuration not stated)	> 100	> 100	> 100	> 100	> 100	> 100	> 100	> 100	> 75	> 100										
CCCC[C@@H]1CCN2C[C@@H](O)[C@@H](O)[C@@H]2[C@H]1O	> 100	> 100	> 100	> 100	> 100	> 100	> 100	> 100	> 100	> 100										
CN1CCN(C(=O)CCNC(=O)Cc2ccc(C(=O)c3ccccc3)cc2)CC1	> 100	> 100	> 100	> 100	56	> 100	> 100	> 100	> 100	> 100										
COc1cc(OC)c(-c2ccc(OCc3ccccc3)c3c(OC)cc(C)cc23)c2c1C(C)=N[C@H](C)C2	3.65	4.08	4.36	3.79	4.12	4.09	3.91	3.84	5.52	3.08										
Oc1cn(-c2ccc(Cl)cc2)nc1-c1nnc(-c2ccccc2)o1	20.5	11.6	> 100	11.7	10.4	> 71.3	30.8	13.8	30.7	20.8	1.63		2.46							
FC(F)(F)c1ccc(N=C/C=C(/Nc2ccc(C(F)(F)F)cc2)c2ccc(Cl)cc2)cc1	19.3	27.9	> 100	30.5	23	49.6	28.2	> 100	32.3	> 100										
